# Test results reported in ChEMBL document CHEMBL1121960, “Importance of the aromatic ring in adrenergic amines. 8. 2-(Aminomethyl)-trans-2-decalols as inhibitors of norepinephrine N-methyltransferase” (J Med Chem, 1982).
# T1: Phenylethanolamine N-methyltransferase (Bos taurus, UniProt P10938)
# T1 sequence (P10938 whole entry): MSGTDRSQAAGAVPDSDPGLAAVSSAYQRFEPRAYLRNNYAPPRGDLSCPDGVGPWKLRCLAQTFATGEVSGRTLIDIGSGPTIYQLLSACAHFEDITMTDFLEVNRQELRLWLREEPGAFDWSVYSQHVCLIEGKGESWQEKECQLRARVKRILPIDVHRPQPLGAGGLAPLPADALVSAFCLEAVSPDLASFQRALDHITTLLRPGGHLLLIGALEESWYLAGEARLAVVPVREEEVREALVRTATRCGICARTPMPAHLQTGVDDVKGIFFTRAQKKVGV
# B1: Phenylethanolamine N-methyltransferase (Bos taurus), P10938 (protein)
# chain: T1 sequence (P10938 whole entry)
# What was measured:
# [1] = molecular target: T1, Phenylethanolamine N-methyltransferase; assay: Tested for inhibitory activity against bovine adrenal norepinephrine N-methyl-transferase using phenylethanolamine as substrate
# [2] = Vmax was determined; type: ADME
# [3] = compound: NCC1(O)CCCCCCCCCC1; assay: (§1) Tested for inhibitory constant against bovine adrenal norepinephrine N-methyl-transferase
# [4] = compound: NC[C@@]1(O)CCC2CCCCC2C1; assay: as §1
# [5] = compound: NC[C@]1(O)CCC2CCCCC2C1; assay: as §1
Molecule,Ki [1] [µM],Vmax [2] [nmol/min/mg],Km [3] [µM],Km [4] [µM],Km [5] [µM]
NC[C@@]1(O)CCC2CCCCC2C1 (some centres undefined),5.63,0.03,,,
NCC1(O)CCCCCCCCCC1,3.56,0.04,,,
NC[C@]1(O)CCC2CCCCC2C1 (some centres undefined),3.8,0.024,,,
B1,,,6.8,4.7,5.7
